Results published in PubChem BioAssay AID248 (DTP/NCI, 2004).
Toxic doses and inconclusive results are not listed. Cut-off read from the data, not from the text of the source: active = T/C of 150% or more; inactive = T/C below 125%.

System: L1210 leukemia ip in BDF1 mice, survival T/C
Test: NCI In Vivo Anticancer Drug Screen. Data for tumor model L1210 Leukemia (intraperitoneal) in B6D2F1 (BDF1) mice
Details: endpoint: mean survival time, higher = longer survival
In short: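 Survival endpoint. Drug-treated group vs vehicle group, expressed as T divided by C. Tumor passaged by transplantation.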

[1] = dose: 100.0 mg/kg/injection, schedule: Q04DX003 (ip), vehicle: Klucel (hydroxypropylcellulose) (HPC)
[2] = dose: 200.0 mg/kg/injection, schedule: Q04DX003 (ip), vehicle: Klucel (hydroxypropylcellulose) (HPC)
[3] = dose: 400.0 mg/kg/injection, schedule: Q04DX003 (ip), vehicle: Klucel (hydroxypropylcellulose) (HPC)
[4] = dose: 100.0 mg/kg/injection, schedule: Q01DX009 (ip), vehicle: Klucel (hydroxypropylcellulose) (HPC)
[5] = dose: 100.0 mg/kg/injection, schedule: Q01DX009 (ip), vehicle: saline
[6] = dose: 200.0 mg/kg/injection, schedule: Q01DX009 (ip), vehicle: saline
[7] = dose: 400.0 mg/kg/injection, schedule: Q01DX009 (ip), vehicle: saline
[8] = dose: 100.0 mg/kg/injection, schedule: Q01DX001 (ip), vehicle: saline
[9] = dose: 200.0 mg/kg/injection, schedule: Q01DX001 (ip), vehicle: saline
[10] = dose: 400.0 mg/kg/injection, schedule: Q01DX001 (ip), vehicle: saline

Measured: T/C

CC1C=CC=CC=C1
inactive: dose: 100.0 mg/kg/injection, schedule: Q01DX001 (ip), vehicle: Klucel (hydroxypropylcellulose) (HPC) 98 % of control | [1] 102 % of control | dose: 200.0 mg/kg/injection, schedule: Q01DX001 (ip), vehicle: Klucel (hydroxypropylcellulose) (HPC) 90 % of control | [2] 93 % of control | dose: 400.0 mg/kg/injection, schedule: Q01DX001 (ip), vehicle: Klucel (hydroxypropylcellulose) (HPC) 92 % of control | [3] 86 % of control

CC(C)c1ccc(/C=C(\C(=O)O)c2cccc3ccccc23)cc1
inactive: [4] 101 % of control

CN1CCCC1=Nc1ccc([N+](=O)[O-])cc1
inactive: [4] 104 % of control | dose: 200.0 mg/kg/injection, schedule: Q01DX009 (ip), vehicle: Klucel (hydroxypropylcellulose) (HPC) 108 % of control | dose: 400.0 mg/kg/injection, schedule: Q01DX009 (ip), vehicle: Klucel (hydroxypropylcellulose) (HPC) 102 % of control

CC(C)NNC(=O)c1ccc(Cl)cc1
inactive: dose: 25.0 mg/kg/injection, schedule: Q01DX009 (ip), vehicle: Klucel (hydroxypropylcellulose) (HPC) 92 % of control | dose: 25.0 mg/kg/injection, schedule: Q04DX003 (ip), vehicle: Klucel (hydroxypropylcellulose) (HPC) 96 % of control | dose: 50.0 mg/kg/injection, schedule: Q01DX009 (ip), vehicle: Klucel (hydroxypropylcellulose) (HPC) 93 % of control | dose: 50.0 mg/kg/injection, schedule: Q04DX003 (ip), vehicle: Klucel (hydroxypropylcellulose) (HPC) 89 % of control | [4] 103 % of control | dose: 100.0 mg/kg/injection, schedule: Q01DX009 (ip), vehicle: saline with Tween-80 88 % of control | [1] 94 % of control | dose: 200.0 mg/kg/injection, schedule: Q01DX009 (ip), vehicle: saline with Tween-80 98 % of control | [2] 86 % of control | dose: 400.0 mg/kg/injection, schedule: Q01DX009 (ip), vehicle: saline with Tween-80 90 % of control | [3] 102 % of control

CCCOC(=O)c1ccc(NCC(C)(C)[N+](=O)[O-])cc1
inactive: [5] 95 % of control | [6] 117 % of control | [7] 91 % of control

CN(C(=O)OCc1ccccc1)c1ccc(C(=O)O)cc1
inactive: [8] 97 % of control | [9] 94 % of control | [10] 97 % of control

Cc1cc(O)cc(C)c1C1=NCC(C)S1 (configuration not stated)
inactive: dose: 100.0 mg/kg/injection, schedule: Q04DX002 (ip), vehicle: Klucel (hydroxypropylcellulose) (HPC) 104 % of control | dose: 200.0 mg/kg/injection, schedule: Q04DX002 (ip), vehicle: Klucel (hydroxypropylcellulose) (HPC) 90 % of control | dose: 400.0 mg/kg/injection, schedule: Q04DX002 (ip), vehicle: Klucel (hydroxypropylcellulose) (HPC) 90 % of control

CCC[CH2][Sn]1([CH2]CCC)[O]C(=O)c2ccc(C(=O)O)cc2C(=O)[O]1
inactive: dose: 5.0 mg/kg/injection, schedule: Q01DX001 (ip), vehicle: saline 105 % of control

CC[C@@]1(O)C(=O)OCc2c1cc1n(c2=O)Cc2cc3ccccc3[n+]([O-])c2-1
inactive: dose: 1.0 mg/kg/injection, schedule: Q01DX015 (ip), vehicle: saline 112 % of control | dose: 8.0 mg/kg/injection, schedule: Q01DX015 (ip), vehicle: saline 86 % of control | dose: 12.5 mg/kg/injection, schedule: Q01DX001 (ip), vehicle: saline 115 % of control

O=C(Nc1cc2ccccc2nc1-c1ccccc1)c1ccccc1
inactive: [8] 92 % of control

O=C(C1=CC=CC1=P(c1ccccc1)(c1ccccc1)c1ccccc1)C(Cl)(Cl)Cl
inactive: dose: 100.0 mg/kg/injection, schedule: Q04DX003 (ip), vehicle: saline with Tween-80 96 % of control | dose: 200.0 mg/kg/injection, schedule: Q04DX003 (ip), vehicle: saline with Tween-80 95 % of control | dose: 400.0 mg/kg/injection, schedule: Q04DX003 (ip), vehicle: saline with Tween-80 96 % of control

O=C(O)C12CCC(CC1Br)C2 (configuration not stated)
inactive: dose: 75.0 mg/kg/injection, schedule: Q01DX001 (ip), vehicle: acetone 105 % of control | [5] 102 % of control | dose: 150.0 mg/kg/injection, schedule: Q01DX001 (ip), vehicle: acetone 106 % of control | [6] 110 % of control | dose: 300.0 mg/kg/injection, schedule: Q01DX001 (ip), vehicle: acetone 102 % of control | [7] 102 % of control

O=C1c2cccc3cccc(c23)C(=O)N1Cc1ccccc1
inactive: [8] 95 % of control | [9] 103 % of control | [10] 91 % of control
